Patent publication US20240025903A1, “Bicyclic Compounds and Uses Thereof for the Treatment of Diseases” (Athira Pharma, Inc., priority 2020, published 2024)

Experiments:
HGF/MET system = molecular target: T1, HGF/MET system (Homo sapiens, UniProt P08581+P14210); test: Phospho-MET ELISA; format: cell-based; set-up: key: − indicates that the compound failed to significantly augment MET phosphorylation; + indicates maximum potency at or above 100 nM; ++ indicates maximum potency at or above 10 nM; +++ indicates maximum potency at or above 1 nM; ++++ indicates maximum potency at or above 0.1 nM; settings: HEK293 cells, 1 ng/mL recombinant HGF, 15 minutes, pMET ELISA
T1 construct: HEK293 cells were prepared by passage into 6-well multi-plates; endogenous in cells; host or cells: HEK293
Procedure: Compounds were screened for potency towards the HGF/MET system using phospho-MET (pMET) ELISA kits (Cell Signaling). pMET levels were detected in samples having low (1 ng/mL) and high (10 ng/mL) concentrations of HGF.
HEK293 cells were prepared by passage into 6-well multi-plates and grown at 37° C. at 5% CO2 in DMEM+10% FBS until approximately 90% confluent. Cells were then starved for at least 8 hours in serum-free growth media.
Exemplary compounds were prepared in DMEM+0.1% FBS, diluted and added to treatment media with 1 ng/mL recombinant HGF protein (R&D Systems). Cells were incubated in triplicate at 37° C. and 5% CO2 for 15 minutes. Samples were then treated with 180 μL ice-cold RIPA (radioimmunoprecipitation assay) buffer and cells were lysed on ice for 15 minutes. Lysates were cleared by centrifugation at 16,000-g for 15 minutes and the supernatant was retained. Samples were normalized using a BCA assay of lysates to determine protein concentrations across the samples.
Between 50 and 100 μg total protein lysate was loaded into ELISA wells in pMET Sandwich ELISA kit (Cell Signaling Catalog #7227C), ensuring equal protein load in each well. The ELISA was processed according to manufacturer's instructions. After color developed, absorbance was read on an optical plate reader at 450 nm.
Potency measurements were determined using peak efficacy by scaling test compound dose treatments along a scale of 1-10 between 1 ng/mL and 10 ng/mL HGF doses according to the following formula: […]
where y is the normalized data-point, x is the raw data point, A is the mean HGF at 1 ng/mL, and B is the mean HGF at 10 ng/mL.

MDCK cells = test: Cell scattering behavior assay; format: cell-based; set-up: key: − indicates that the compound failed to significantly promote cell scattering behavior; + indicates maximum potency at or above 100 nM; ++ indicates maximum potency at or above 10 nM; +++ indicates maximum potency at or above 1 nM; ++++ indicates maximum potency at or above 0.1 nM; settings: 5 ng/mL HGF, 24 hours, normalized particle count vs HGF alone
Procedure: MDCK cells were grown under normal conditions and observed to spontaneously form tight colonies as they proliferate. MDCK cells respond to HGF treatment by moving away from each other (scattering), which is quantified to assess the amount of HGF/MET activation in the cell population. In this experiment, MDCK cells were plated in a 96-well format, treated with HGF and exemplary compounds, fluorescently stained, imaged in large fields, and scattering behavior was quantified. Quantification was determined by analyzing the number of continuous groups of cells compared to the total stained area imaged (normalized particle counts).
MDCK cells were plated at low density in black-walled imaging plates and allowed to attach overnight at 37° C. and 5% CO2 in DMEM+10% FBS. Cells were then starved to 2 hours in DMEM without FBS (“starve media”). Samples containing exemplary compounds were prepared in DMEM without FBS and included 5 ng/mL HGF protein (“treatment media”). A control curve was also prepared for each plate using HGF concentrations of 0, 5, 10, and 20 ng/mL. Starve media was replaced with treatment media and cells were incubated for 24 hours at 37° C. and 5% CO2.
After incubation, cells were fixed by replacing treatment media with cold ethanol and incubating for 20 minutes at 4° C. Cells were then rehydrated by washing with PBS and then with stain solution (fluorescent wheat germ agglutinin; WGA488 at 20 μg/mL in PBS). Cells were incubated with stain solution 30 minutes at room temperature after which stain solution was replaced with fresh PBS.
Fields of cells were imaged using an iCyte high content imager in the green wavelength. Images were converted to binary and analyzed for particle size and particle count. For the purpose of analysis, an individual cell touching no other cells or separated colonies of cells were identified as particles, and particle counts were normalized by the total signal area to account for differences in cell number. […] Compound potency was assessed by statistical increase in normalized particle count compared to HGF treatment alone.

[1] = Turbidimetric solubility assay; format: physicochemical; settings: aqueous buffer, kinetic from dmso stock, PBS, 37° C., absorbance 620 nm
Procedure: Aqueous solubility is a critical drug property that helps to predict bioavailability. Generally, compounds with aqueous solubility <100 μg/ml are poor drugs.
To assess a compound's solubility by turbidity, test compounds were first dissolved in organic solvent (DMSO) at a concentration of 10 mM. This compound solution was then diluted in aqueous solvent (PBS) in a dilution series from […] in a 96-well assay plate. Solutions were incubated at 37° C. for 2 hours.
In wells with test compounds over their solubility limit, the compound will precipitate, effectively blocking the passage of light and thus increasing the absorbance signal of UV light at a wavelength of 620 nm. Compounds were considered insoluble at a tested concentration if turbidity raises the absorbance more than 10% above control reads.

[2] = Parallel artificial membrane permeability assay (PAMPA); format: in vitro ADME; settings: PBS, room temperature
Procedure: Bioavailable drugs must permeate the cellular membranes of the lining of the digestive tract. To estimate the penetrability of exemplary compounds, the in vitro parallel artificial membrane permeability assay (PAMPA) was utilized.
Test compounds must have a standard curve in the final read plate to determine partitioned concentration of each drug. A 6-point standard curve was prepared for each compound from 0 to 200 μM in phosphate-buffered saline (PBS).
Test compound solution (300 μL in PBS) was added to the donor (bottom) well of the PAMPA plate in 5 replicates and PBS vehicle (200 μL) was added to the acceptor (top) wells of appropriate wells to match the loading of the donor plate. The bottom and top of the PAMPA plates were then sandwiched together. The PAMPA plates were then incubated at room temperature for 5 hours. After incubation, 150 μL of donor solution was added to a UV compatible plate containing the corresponding standard curve. 150 μL of acceptor well solution was added adjacent to the corresponding standard curve and donor well samples for that compound. The plate was then read using a UV plate reader.
Permeability and membrane retention were then calculated based on the following formulas:
Permeability (cm/s): (Pe)(cm/s)={−ln [1−CA(t)/Ceq]}/[A*(1/VD+1/VA)*t] (equation 1) • where: • A=filter area (0.3 cm^2); • VD=donor well volume (0.3 mL); • VA=acceptor well volume (0.2 mL); • t=incubation time (seconds); • CA(t)=compound concentration in acceptor well at time t; • CD(t)=compound concentration in donor well at time t; and • Ceq=[CD(t)*VD+CA(t)*VA]/(VD+VA).
Membrane Retention (R)=1−[CD(t)*VD+CA(t)*VA]/(C0*VD) (equation 2) • where: • CD(t), VD, CA(t), and VA are as defined for equation 1, and • C0=initial concentration in donor well (200 uM).

HepG2 cells = test: Cytotoxicity assay (LDH release); format: cell-based; settings: 48 hours, 0.1 to 100 μM
Procedure: This experiment was designed to obtain a preliminary assessment of cytotoxicity.
HepG2 cells were plated in 96-well cell culture plates and allowed to attach overnight at 37° C., 5% CO2 in EMEM+10% FBS. Treatments were made in complete media (EMEM+10% FBS) and included a dilution series of test compounds from 0.1 to 100 μM. Known cytotoxin cerivastatin was used as a positive assay control and prepared at a final concentration of 0.5 μM.
Growth media was replaced with treatment media (EMEM+10% FBS containing test compound dissolved in DMSO) and cells were incubated with test compounds for 48 hours. At the end of the incubation period, supernatant media from each well was transferred to a new plate and LDH assay working solution was added. LDH assay solution undergoes a colorimetric reaction in proportion to the amount of lactate dehydrogenase (an intracellular protein that was only found in the media in the presence of lysed cells) in the media. Color reaction was quantified by measurement of absorbance at a wavelength of 490 nm.
The signal range of the assay was determined by no manipulation in a negative control treatment and full lysis of all cells in a lysis control sample. Compounds that increase the level of cytotoxicity more than 20% above negative control samples were considered cytotoxic in this assay.

T1 sequence (P08581 308-1390 limits assumed): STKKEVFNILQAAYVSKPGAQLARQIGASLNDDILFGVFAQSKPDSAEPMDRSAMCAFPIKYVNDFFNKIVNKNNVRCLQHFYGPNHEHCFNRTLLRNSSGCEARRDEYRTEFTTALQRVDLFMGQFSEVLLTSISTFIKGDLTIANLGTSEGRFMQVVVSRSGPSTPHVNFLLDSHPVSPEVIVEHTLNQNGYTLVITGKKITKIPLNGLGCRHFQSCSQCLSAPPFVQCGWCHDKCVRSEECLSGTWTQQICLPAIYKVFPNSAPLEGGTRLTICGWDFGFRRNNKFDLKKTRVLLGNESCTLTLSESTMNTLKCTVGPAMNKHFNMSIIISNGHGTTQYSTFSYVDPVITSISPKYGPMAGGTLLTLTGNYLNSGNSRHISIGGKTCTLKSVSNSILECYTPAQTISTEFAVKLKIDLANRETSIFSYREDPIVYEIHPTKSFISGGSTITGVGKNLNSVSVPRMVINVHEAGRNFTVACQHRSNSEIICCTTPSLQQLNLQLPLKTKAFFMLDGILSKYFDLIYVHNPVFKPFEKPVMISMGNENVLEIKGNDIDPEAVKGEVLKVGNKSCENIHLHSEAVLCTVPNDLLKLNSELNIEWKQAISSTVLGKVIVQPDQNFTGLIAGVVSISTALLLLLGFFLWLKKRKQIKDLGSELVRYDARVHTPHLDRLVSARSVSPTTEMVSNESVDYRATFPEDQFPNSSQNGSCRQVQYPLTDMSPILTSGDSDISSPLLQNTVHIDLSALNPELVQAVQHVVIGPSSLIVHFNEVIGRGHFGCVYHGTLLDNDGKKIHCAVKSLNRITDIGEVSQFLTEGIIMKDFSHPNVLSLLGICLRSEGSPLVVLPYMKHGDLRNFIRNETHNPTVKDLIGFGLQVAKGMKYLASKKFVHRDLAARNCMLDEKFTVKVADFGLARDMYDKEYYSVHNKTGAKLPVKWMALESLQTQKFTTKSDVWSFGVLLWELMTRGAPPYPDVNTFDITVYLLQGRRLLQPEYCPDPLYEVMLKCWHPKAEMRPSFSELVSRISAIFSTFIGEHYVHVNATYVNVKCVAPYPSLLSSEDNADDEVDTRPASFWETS
T1 sequence (P14210 32-494 limits assumed): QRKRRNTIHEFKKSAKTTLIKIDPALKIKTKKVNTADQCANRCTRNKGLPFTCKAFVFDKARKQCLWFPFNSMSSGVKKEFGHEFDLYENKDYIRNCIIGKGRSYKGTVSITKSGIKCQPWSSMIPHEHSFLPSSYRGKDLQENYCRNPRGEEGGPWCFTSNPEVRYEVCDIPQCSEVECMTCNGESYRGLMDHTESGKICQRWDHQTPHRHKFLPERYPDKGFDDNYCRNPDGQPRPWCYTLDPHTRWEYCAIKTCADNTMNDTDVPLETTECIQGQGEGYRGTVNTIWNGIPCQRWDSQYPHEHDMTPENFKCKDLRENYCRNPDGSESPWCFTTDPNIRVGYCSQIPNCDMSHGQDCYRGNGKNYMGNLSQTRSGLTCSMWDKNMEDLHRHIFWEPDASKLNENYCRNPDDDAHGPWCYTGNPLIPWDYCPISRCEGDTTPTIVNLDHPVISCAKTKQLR

SMILES | solubility at 2 h [1] [µM] | Papp at 5 h, 200 µM [2] [nm/s] | Potency (augmentation of MET phosphorylation) (HGF/MET system) | Potency (cell scattering) (MDCK cells) | Cytotoxicity (HepG2 cells)
CCC(C)CN1CC2N(C(=O)c3ccc(O)nc3)CCC(=O)N2[C@@H](C)C1=O (stereo partly drawn) [Compound 4a] | > 300 | > 100 | + (+ indicates maximum potency at or above 100 nM) | + (+ indicates maximum potency at or above 100 nM) | ++++ (++++ indicates non-toxic at 100 μM)
CC1C(=O)N(CCC2CCCC2)CC2N(Cc3ccc(C(F)(F)F)c(Cl)c3)CCC(=O)N12 (stereo not drawn) [Compound 54] | > 30 | < 20 | − | − | +++ (+++ indicates non-toxic at 10 μM)
CC1C(=O)N(CCC2CCC2)CC2N(Cc3ccc(C(F)(F)F)c(Cl)c3)CCC(=O)N12 (stereo not drawn) [Compound 51] | > 100 | < 20 | +++ (+++ indicates maximum potency at or above 1 nM) | +++ (+++ indicates maximum potency at or above 1 nM) | +++ (+++ indicates non-toxic at 10 μM)

Continued, in another order:

solubility at 2 h [1] [µM] | Papp at 5 h, 200 µM [2] [nm/s] | SMILES | Potency (augmentation of MET phosphorylation) (HGF/MET system) | Potency (cell scattering) (MDCK cells) | Cytotoxicity (HepG2 cells)
> 100 | < 20 | CCC(C)CN1CC2N(Cc3ccc(OC(F)F)cc3)CCC(=O)N2C(CC(C)C)C1=O (stereo not drawn) [Compound 53, 1-(4-(difluoromethoxy)benzyl)-6-isobutyl-8-(2-methylbutyl)hexahydro-4H-pyrazino[1,2-a]pyrimidine-4,7(6H)-dione] | ++ (++ indicates maximum potency at or above 10 nM) | +++ (+++ indicates maximum potency at or above 1 nM) | +++ (+++ indicates non-toxic at 10 μM)
> 300 | > 20 | CCC(C)N1CC2N(Cc3ccc(O)cc3)CCC(=O)N2CC1=O (stereo not drawn) [Compound 9] | − | − | ++++ (++++ indicates non-toxic at 100 μM)
> 300 | > 20 | CCC(C)CN1CC2N(Cc3ccc(F)cc3)CCC(=O)N2C(C)C1=O (stereo not drawn) [Compound 42] | ++++ (++++ indicates maximum potency at or above 0.1 nM) | +++ (+++ indicates maximum potency at or above 1 nM) | ++++ (++++ indicates non-toxic at 100 μM)
